The target in assay [1] is LMP7 (purified human immunoproteasome) (Homo sapiens, UniProt P28062). Put plainly: Determination of LMP7 activity (fluorescence intensity assay, Suc-LLVY-AMC). The class given is biochemical. To be noted: incubation for 20 minutes. The method, then: Determination of LMP7 Activity
Measurement of LMP7 inhibition is performed in 384 well format based on fluorescence intensity assay.
(§1) Purified human immunoproteasome (0.25 nM) and serial diluted compounds in DMSO (range of concentrations from 30 μM to 15 pM) or controls are incubated for 20 minutes or 120 minutes (long incubation) at 25° C. in assay buffer containing 50 mM Tris pH 7.4, 0.03% SDS, 1 mM EDTA and 1% DMSO. The reaction is initiated by the addition of the fluorogenic peptide substrate, Suc-LLVY-AMC (Bachem I-1395), at a concentration of 40 μM. After 60 minutes of incubation at 37° C., fluorescence intensity is measured at λex=350 nm and λem=450 nm with a fluorescence reader (Perkin Elmer Envision reader or equivalent).
(§2) Unless indicated otherwise the results are obtained after incubation for 20 minutes.

Assay [2] has as its target Beta5 (purified human constitutive proteasome) (Homo sapiens, UniProt P28074). Put plainly: Determination of Beta5 activity (fluorescence intensity assay, Suc-LLVY-AMC). The class given is biochemical. To be noted: incubation for 20 minutes. The method, then:
Determination of Beta5 Activity
Measurement of Beta5 inhibition is performed in 384 well format based on fluorescence intensity assay.
as §1, with “constitutive proteasome (1.25” for “immunoproteasome (0.25”
as §2

Some results are limits rather than exact numbers.

In general, IC50 refers to the concentration that gives 50% inhibition. Higher therefore signals lower potency. In turn, `CC(=O)N(CCC(=O)N[C@@H](Cc1ccccc1)B(O)O)c1ccccc1` [Compound No. 1, [(1R)-1-[3-(N-acetylanilino)propanoylamino]-2-phenyl-ethyl]boronic acid] had an IC50 in assay [1] of 50 to 500 nM.

On to `CCS(=O)(=O)N(CCC(=O)N[C@@H](Cc1ccc(C)cc1)B(O)O)c1ccccc1` [Compound No. 2, [(1R)-1-[3-(N-ethylsulfonylanilino)propanoylamino]-2-(p-tolyl)ethyl]boronic acid], for which the concentration for half-maximal inhibition (IC50) in assay [1] was less than 50 nM.

Turning to `Cc1ccc(C[C@H](NC(=O)CCN(c2ccccc2)S(C)(=O)=O)B(O)O)cc1` [Compound No. 3, [(1R)-1-[3-(N-methylsulfonylanilino)propanoylamino]-2-(p-tolyl)ethyl]boronic acid], the IC50 in assay [1] was less than 50 nM; in assay [2], 50 to 500 nM. Also, the “Selectivity LMP7 vs Beta5” value in assay [2] is “+++ (+++: 30 ≤ Selectivity < 50)”.

Molecule `O=C(CCS(=O)(=O)c1ccccc1)N[C@@H](Cc1coc2ccccc12)B(O)O` [Compound No. 4, [(1R)-1-[3-(benzenesulfonyl)propanoylamino]-2-(benzofuran-3-yl)ethyl]boronic acid] registered an IC50 in assay [1] of less than 50 nM. For the same molecule, in assay [2], the IC50 was less than 50 nM and the “Selectivity LMP7 vs Beta5” value was “+++ (+++: 30 ≤ Selectivity < 50)”.

Consider `CCN(CCC(=O)N[C@@H](Cc1ccc(C)cc1)B(O)O)S(=O)(=O)c1ccccc1` [Compound No. 5, [(1R)-1-[3-[benzenesulfonyl(ethyl)amino]propanoylamino]-2-(p-tolyl)ethyl]boronic acid], for which the IC50 in assay [1] was less than 50 nM.

Take `Cc1ccc(C[C@H](NC(=O)CCN(C(C)C)S(=O)(=O)c2ccccc2)B(O)O)cc1` [Compound No. 6, [(1R)-1-[3-[benzenesulfonyl(isopropyl)amino]propanoylamino]-2-(p-tolyl)ethyl]boronic acid]: the half-inhibitory concentration (IC50) in assay [1] is less than 50 nM.

Molecule `Cc1ccc(C[C@H](NC(=O)CCN(C)S(=O)(=O)c2ccccc2)B(O)O)cc1` [Compound No. 7, [(1R)-1-[3-[benzenesulfonyl(methyl)amino]propanoylamino]-2-(p-tolyl)ethyl]boronic acid] displayed an IC50 in assay [1] of less than 50 nM.

On to `CCN(CCC(=O)N[C@@H](Cc1ccccc1)B(O)O)C(=O)c1ccccc1` [Compound No. 8, [(1R)-1-[3-[benzoyl(ethyl)amino]propanoylamino]-2-phenyl-ethyl]boronic acid], for which the IC50 in assay [1] fell in the range of 50 to 500 nM; in assay [2], 500 to 5000 nM. Besides, the “Selectivity LMP7 vs Beta5” value in assay [2] was “+++ (+++: 30 ≤ Selectivity < 50)”.

In turn, `CC(C)N(CCC(=O)N[C@@H](Cc1ccccc1)B(O)O)C(=O)c1ccccc1` [Compound No. 9, [(1R)-1-[3-[benzoyl(isopropyl)amino]propanoylamino]-2-phenyl-ethyl]boronic acid] registered an IC50 in assay [1] of 50 to 500 nM. In assay [2], the IC50 was 500 to 5000 nM and the “Selectivity LMP7 vs Beta5” value is recorded as “+++ (+++: 30 ≤ Selectivity < 50)”.

Take `CN(CCC(=O)N[C@@H](Cc1ccccc1)B(O)O)C(=O)c1ccccc1` [Compound No. 10, [(1R)-1-[3-[benzoyl(methyl)amino]propanoylamino]-2-phenyl-ethyl]boronic acid]: the IC50 in assay [1] was in the range of 50 to 500 nM.

In the case of `CCN(CCC(=O)N[C@@H](Cc1ccc(C)cc1)B(O)O)S(=O)(=O)CC` [Compound No. 11, [(1R)-1-[3-[ethyl(ethylsulfonyl)amino]propanoylamino]-2-(p-tolyl)ethyl]boronic acid], in assay [1], the concentration for half-maximal inhibition (IC50) is less than 50 nM.

On to `CCN(CCC(=O)N[C@@H](Cc1ccccc1)B(O)O)C(=O)c1ccccc1C` [Compound No. 12, [(1R)-1-[3-[ethyl-(2-methylbenzoyl)amino]propanoylamino]-2-phenyl-ethyl]boronic acid], for which the IC50 in assay [1] fell in the range of 50 to 500 nM.

With `CCN(CCC(=O)N[C@@H](Cc1ccccc1)B(O)O)C(=O)c1cccc(C)c1` [Compound No. 13, [(1R)-1-[3-[ethyl-(3-methylbenzoyl)amino]propanoylamino]-2-phenyl-ethyl]boronic acid], the IC50 in assay [1] is 50 to 500 nM.

Regarding `CCN(CCC(=O)N[C@@H](Cc1ccccc1)B(O)O)C(=O)c1ccc(C)cc1` [Compound No. 14, [(1R)-1-[3-[ethyl-(4-methylbenzoyl)amino]propanoylamino]-2-phenyl-ethyl]boronic acid], the IC50 in assay [1] was less than 50 nM. Also, in assay [2], the IC50 fell in the range of 500 to 5000 nM and the “Selectivity LMP7 vs Beta5” value was “+++ (+++: 30 ≤ Selectivity < 50)”.

As for `Cc1ccc(C[C@H](NC(=O)CCN(C(C)C)S(C)(=O)=O)B(O)O)cc1` [Compound No. 15, [(1R)-1-[3-[isopropyl(methylsulfonyl)amino]propanoylamino]-2-(p-tolyl)ethyl]boronic acid], the IC50 in assay [1] lay in the range of 50 to 500 nM.

In assay [1], `CCN(CC(=O)N[C@@H](Cc1ccc(C)cc1)B(O)O)S(=O)(=O)c1ccccc1` [Compound No. 16, [(1R)-1-[[2-[benzenesulfonyl(ethyl)amino]acetyl]amino]-2-(p-tolyl)ethyl]boronic acid] had an IC50 of less than 50 nM. In addition, in assay [2], the concentration for half-maximal inhibition (IC50) is 50 to 500 nM and the “Selectivity LMP7 vs Beta5” value was “+++ (+++: 30 ≤ Selectivity < 50)”.

As to `CCN(CC(=O)N[C@@H](Cc1ccccc1)B(O)O)C(=O)c1ccccc1` [Compound No. 17, [(1R)-1-[[2-[benzoyl(ethyl)amino]acetyl]amino]-2-phenyl-ethyl]boronic acid], the IC50 in assay [1] was 50 to 500 nM.

In assay [1], `CCc1cccc(C[C@H](NC(=O)CCCC(=O)N(C)C)B(O)O)c1` [Compound No. 18, [(1R)-1-[[5-(dimethylamino)-5-oxo-pentanoyl]amino]-2-(3-ethylphenyl)ethyl]boronic acid] came in with an IC50 of 500 to 5000 nM. Further, in assay [2], the IC50 is greater than 5000 nM and the “Selectivity LMP7 vs Beta5” value was “+++ (+++: 30 ≤ Selectivity < 50)”.

As to `CCN(CCC(=O)N[C@@H](Cc1ccc(C)cc1C)B(O)O)C(=O)c1ccc(C)cc1` [Compound No. 19, [(1R)-2-(2,4-dimethylphenyl)-1-[3-[ethyl-(4-methylbenzoyl)amino]-propanoylamino]-ethyl]boronic acid], the half-maximal inhibitory concentration (IC50) is less than 50 nM in assay [1] and 500 to 5000 nM in assay [2]. Besides, in assay [2], the “Selectivity LMP7 vs Beta5” value was “+++++ (+++++: Selectivity ≥ 70)”.

The molecule `CCc1cccc(C[C@H](NC(=O)CCS(C)(=O)=O)B(O)O)c1` [Compound No. 20, [(1R)-2-(3-ethylphenyl)-1-(3-methylsulfonylpropanoylamino)ethyl]-boronic acid] registered an IC50 in assay [1] of 50 to 500 nM. In addition, in assay [2], the IC50 lay in the range of 500 to 5000 nM and the “Selectivity LMP7 vs Beta5” value is “+++ (+++: 30 ≤ Selectivity < 50)”.

Turning to `CCc1cccc(C[C@H](NC(=O)CCCS(C)(=O)=O)B(O)O)c1` [Compound No. 21, [(1R)-2-(3-ethylphenyl)-1-(4-methylsulfonylbutanoylamino)ethyl]-boronic acid], the IC50 in assay [1] was 50 to 500 nM; in assay [2] it was greater than 5000 nM. In assay [2], the “Selectivity LMP7 vs Beta5” value was “+++ (+++: 30 ≤ Selectivity < 50)”.

For the molecule `CCc1cccc(C[C@H](NC(=O)CCCCS(C)(=O)=O)B(O)O)c1` [Compound No. 22, [(1R)-2-(3-ethylphenyl)-1-(5-methylsulfonylpentanoylamino)ethyl]-boronic acid], in assay [1], the IC50 fell in the range of 50 to 500 nM.

Regarding `CS(=O)(=O)CCC(=O)N[C@@H](Cc1coc2ccccc12)B(O)O` [Compound No. 23, [(1R)-2-(benzofuran-3-yl)-1-(3-methylsulfonylpropanoylamino)ethyl]-boronic acid], the IC50 in assay [1] was less than 50 nM.

On to `CCC(=O)N(CC)CC(=O)N[C@@H](Cc1ccc(C)cc1C)B(O)O` [Compound No. 24, [(1R)-2-(2,4-dimethylphenyl)-1-[[2-[ethyl(propanoyl)amino]acetyl]-amino]ethyl]boronic acid], for which the concentration for half-maximal inhibition (IC50) in assay [1] is 50 to 500 nM. In addition, in assay [2], the IC50 was greater than 5000 nM and the “Selectivity LMP7 vs Beta5” value was “+++++ (+++++: Selectivity ≥ 70)”.

In turn, `CCN(CCC(=O)N[C@@H](Cc1ccc(F)cc1)B(O)O)C(=O)c1ccc(OC)cc1` [Compound No. 25, [(1R)-1-[3-[ethyl-(4-methoxybenzoyl)amino]propanoylamino]-2-(4-fluorophenyl)ethyl]boronic acid] returned an IC50 in assay [1] of less than 50 nM. In assay [2], the IC50 lay in the range of 500 to 5000 nM and the “Selectivity LMP7 vs Beta5” value is given as “++++ (++++: 50 ≤ Selectivity < 70)”.

In assay [1], `CCN(CCC(=O)N[C@@H](Cc1ccc(F)cc1)B(O)O)C(=O)c1ccc(Cl)cc1` [Compound No. 26, [(1R)-1-[3-[(4-chlorobenzoyl)-ethyl-amino]propanoylamino]-2-(4-fluorophenyl)ethyl]boronic acid] had an IC50 of less than 50 nM. For the same molecule, in assay [2], the IC50 lay in the range of 50 to 500 nM and the “Selectivity LMP7 vs Beta5” value is “++++ (++++: 50 ≤ Selectivity < 70)”.

Take `CCN(CCC(=O)N[C@@H](Cc1ccc(F)cc1)B(O)O)C(=O)c1ccc(C(F)(F)F)cc1` [Compound No. 27, [(1R)-1-[3-[ethyl-[4-(trifluoromethyl)benzoyl]amino]propanoylamino]-2-(4-fluorophenyl)ethyl]boronic acid]: in assay [1], the IC50 is less than 50 nM. In addition, in assay [2], the IC50 lay within 50 to 500 nM and the “Selectivity LMP7 vs Beta5” value is listed as “+++ (+++: 30 ≤ Selectivity < 50)”.

For the origin of these results see patent US10253049B2, “Boronic acid derivatives” (MERCK PATENT GMBH, priority 2014, dated 2019).
